Assay results from the NIST ThermoML archive (doi:10.1016/j.jct.2018.09.011).
Values joined by “and” are separate entries in the source; they are usually repeats but may differ in a detail not shown here. Equal values may be shown once.

How the values were obtained:
[1] = Molar enthalpy of transition or fusion; conditions: Crystal; DSC

Nc1cccc(O)c1 [3-hydroxybenzenamine]
Conditions | Molar enthalpy of transition or fusion [kJ/mol]
[1] | 23.4

Crystal, Calculated from knudsen effusion weight loss
Conditions | vapor or sublimation pressure
321.35 K | 0.000101 kPa and 0.000102 kPa
323.2 K | 0.000127 kPa and 0.000126 kPa
325.17 K | 0.000163 kPa and 0.000161 kPa and 0.000162 kPa
327.4 K | 0.000209 kPa and 0.000211 kPa and 0.00021 kPa
329.2 K | 0.00026 kPa and 0.000259 kPa
331.17 K | 0.000327 kPa and 0.00033 kPa and 0.000328 kPa
333.37 K | 0.000422 kPa and 0.00042 kPa
335.2 K | 0.000513 kPa and 0.0005 kPa and 0.00051 kPa
337.16 K | 0.00063 kPa and 0.000633 kPa
339.36 K | 0.000816 kPa and 0.000808 kPa and 0.000818 kPa
341.19 K | 0.00099 kPa and 0.000998 kPa and 0.001 kPa
343.33 K | 0.001245 kPa and 0.001241 kPa and 0.001238 kPa

Conditions | Normal melting temperature [°C] | vapor or sublimation pressure [kPa]
354.45 K, Crystal | – | 0.00426
356.39 K, Crystal | – | 0.00515
358.34 K, Crystal | – | 0.00622
360.33 K, Crystal | – | 0.00754
362.32 K, Crystal | – | 0.00913
364.28 K, Crystal | – | 0.01083
366.24 K, Crystal | – | 0.01321
368.21 K, Crystal | – | 0.01572
369.99 K, Metastable liquid | – | 0.02985
370.19 K, Crystal | – | 0.01886
371.93 K, Metastable liquid | – | 0.03445
372.14 K, Crystal | – | 0.02314
373.94 K, Metastable liquid | – | 0.03983
374.12 K, Crystal | – | 0.02745
375.91 K, Metastable liquid | – | 0.04535
376.1 K, Crystal | – | 0.03277
377.86 K, Metastable liquid | – | 0.05245
378.06 K, Crystal | – | 0.0385
379.83 K, Metastable liquid | – | 0.06035
380.03 K, Crystal | – | 0.04532
381.81 K, Metastable liquid | – | 0.06885
382.13 K, Crystal | – | 0.05475
383.79 K, Metastable liquid | – | 0.07865
383.96 K, Crystal | – | 0.06316
385.75 K, Metastable liquid | – | 0.08925
385.9 K, Crystal | – | 0.07525
387.75 K, Metastable liquid | – | 0.1024
387.9 K, Crystal | – | 0.08917
389.74 K, Metastable liquid | – | 0.1162
389.85 K, Crystal | – | 0.1058
391.73 K, Metastable liquid | – | 0.131
391.83 K, Crystal | – | 0.1242
393.68 K, Metastable liquid | – | 0.1478
395.67 K, Metastable liquid | – | 0.1684
397.62 K, Liquid | – | 0.1915
399.72 K, Liquid | – | 0.2191
401.54 K, Liquid | – | 0.2426
403.63 K, Liquid | – | 0.2731
405.59 K, Liquid | – | 0.3119
407.46 K, Liquid | – | 0.3461
409.54 K, Liquid | – | 0.3932
411.5 K, Liquid | – | 0.4342
413.47 K, Liquid | – | 0.4825
415.43 K, Liquid | – | 0.5451
417.4 K, Liquid | – | 0.6031
419.39 K, Liquid | – | 0.6721
421.33 K, Liquid | – | 0.7506
423.31 K, Liquid | – | 0.8416
Crystal, DTA | 121.48 | –
